# Experimental data from US10994013B2, “Solid dosage form containing arabinogalactan” (TEMPLE UNIVERSITY—OF THE COMMONWEALTH SYSTEM OF HIGHER …, priority 2013, dated 2021).
# Read-outs that look alike come from different tables or passages of the source.
# Assays:
# [1] = cited from earlier work
# [2] = Equilibrium solubility of drug in polymer solution in 0.1N HCl; format: physicochemical; conditions: for solubility thermodynamic at 72 h: 0.1 N HCl without polymer, simulated gastric fluid, thermodynamic from solid, 0.1 N HCl, 37 C, no polymer, read-out: saturation / equilibrium solubility of neat drug; for fold increase in drug solubility in the presence of AGF polymer: AGF dissolved in 0.1N HCl, 0% to 3%, ITRA and KETO at 3%
# Experimental: Anal. Chem. Instrum. […] An excess of IBU (200 mg) was added to 10 ml of polymer solution in 0.1N HCl in a stoppered glass vial and was bath sonicated for 30 minutes. The polymer concentrations ranged from 0% to 3% (0 mg/ml to 30 mg/ml). The vials were kept in a shaking water bath at 37 C and at 50 rpm for 72 hours to obtain equilibrium. After 72 hours the shaker was turned off and the samples were kept at a standstill at 37 C for 3 hours to settle the undissolved drug at the bottom of the glass vials. The supernatant was filtered using a 0.45 micron filter.
# For an equilibrium study of itraconazole, 50 mg itraconazole (ITRA) was added to 20 ml of AGF polymer solution in 0.1 N HCl.
# [3] = In vitro drug dissolution, USP basket method, 0.1 N HCl; format: physicochemical; conditions: for % drug release at 15 minutes / % drug release at 30 minutes / % drug release at 120 minutes: 0.1N HCl, AGF formulations
# Experimental: (§1) The in vitro drug dissolution rates of the dosage forms listed in Table 4 below were determined by the USP basked method (270 mesh, 53 micron pore size). The Van Kel VK7010 dissolution system was employed. 900 ml of 0.1 N HCl at 37° C. was used as a dissolution medium. The media was selected to mimic gastric pH and to allow greater discrimination of ibuprofen dissolution profiles due to formulation and processing effects. The dissolution experiment was run at 100 rpm. Each sample contained a dosage form equivalent to 25 mg of ibuprofen to maintain the non sink conditions, i.e. to employ a volume of medium (900 ml in this case) that is less than the volume of medium required for sink conditions, which is three times that required in order to form a saturated solution of drug. In vitro dissolution of 25 mg of neat ibuprofen was used as a control. At appropriate time intervals, samples were collected and replaced by fresh media. Each sample was filtered and the drug was analyzed using Agilent/HP 8453 UV-Vis spectrophotometer (λmx=222 nm). The experiment was conducted in triplicate. T50 (time for 50% drug release), T60 (time for 60% drug release), and T80 (time for 80% drug release) was recorded directly from the dissolution profiles.
# as §1, with “PMs and MSDs made with ibuprofen and AGF or HPMCK3” for “the dosage forms listed in Table 4 below”, “contained an MSD or” for “contained”, “PM” for “dosage form”
# In vitro basket dissolution was carried out on SDM and PM formulations as described in Example 3. Each sample of ITRA AGF SDM contained an amount equivalent to 25 mg of ITRA to maintain the non sink conditions. ITRA was analyzed using an Agilent/HP 8453 UV-Vis spectrophotometer (λmax=257 nm).
# UV analysis was conducted at λmax=260 nm.
# The degree of similarity between the dissolution profiles was calculated using the following equation from Moore and Flanner, 1996, Pharm. Tech. 20:64-74, and using data points up to 85% drug release (Shah et al., 1998, Pharm. Res. 15:889-896):
# Two dissolution profiles would be deemed similar if the average difference between the reference and the test assay at the same time point were less than 10%. The similarity factor value would then not be less than 50%.
# [4] = Physical stability: XRPD RDC at accelerated storage conditions; format: physicochemical; conditions: IBU as reference, 2θ of 22.4°
# Experimental: The RDC was measured by XRPD as described above for the dosage forms listed in Table 22 at various accelerated storage conditions. Batches of IBU AGF SDM, IBU HPMCK3 SDM, IBU HPMCK3 MSD and IBU AGF MSD at 10% drug load and 20% drug load were prepared as described above. In addition, 10% IBU AGF MSD and 10% IBU AGF SDM batches were prepared with 0.02% butylated hydroxytoluene (BHT), an antioxidant. […] 60% relative humidity and 40° C. […] These findings were confirmed by DSC (not shown).
# [5] = Relative degree of crystallinity (RDC) by XRPD; format: physicochemical; conditions: at 10% DL SD with AGF
# Experimental: The term “relative degree of crystallinity (RDC),” as used herein is the degree of crystallinity of the therapeutic agent in the dosage form relative to the degree of crystallinity of the neat therapeutic agent. RDC is calculated using the following formula: RDC=I sample/I therapeutic agent I sample: peak height of the formulation under investigation at a chosen angle (2θ) I therapeutic agent: peak height of the neat therapeutic agent at the same angle that was chosen for the sample (2θ)
# Powder X-ray diffraction of the ibuprofen-arabinogalactan MSDs was carried out to determine the crystallinity of the ibuprofen. Powder samples ([…]) were placed on a sample holder and the diffractograms were collected using a Bruker D8 diffractometer (Madison, Wis.) with Cu Kα radiation. The voltage of 40 kV was used and the current was 40 mA. The samples were scanned from 2 θ to 40 θ at a rate of 2 θ/minute. The data analysis was done using Bruker-AXs EVA software (version 15.0).
# XRPD were collected using Rigaku D-Max B X-ray Diffractometer (Tokyo, Japan). The powder sample size of 0.5 gram was used and samples were run at 35 kV at 15 mA and […]. JADE software (version 9) was used to process, acquire and analyze the data.
structure (smiles),measurement,setting,value
"CCCNC(=O)NS(=O)(=O)c1ccc(Cl)cc1 [CHLOPR, chlorpropamide]",Solubility,[1]; water at pH 6,2500 µg/mL
"Clc1ccc(C(Cn2ccnc2)OCc2ccsc2Cl)c(Cl)c1 (stereo not shown) [TIOCO, tioconazole]",Solubility,[1],~2 µg/mL
"CC(C)Cc1ccc(C(C)C(=O)O)cc1 (stereo not shown) [IBU, Ibuprofen]",solubility thermodynamic at 72 h,[2],37 µg/mL
same,fold increase in drug solubility in the presence of AGF polymer,[2],7.3 fold
same,IBU solubility with increasing HPMCK3 concentration,[2]; control polymer HPMCK3 in 0.1N HCl,did not enhance the solubility
same,% drug release at 15 minutes,[3],8%
same,% drug release at 30 minutes,[3],27%
same,% drug release at 120 minutes,[3],41%
same,T60 (time for 60% drug release),"[3]; 900 ml 0.1 N HCl, 37° C., 100 rpm, 25 mg ibuprofen, non sink",300 min
same,"XRPD RDC, 25° C. and 0% relative humidity (6 Months)",[4],1
same,"XRPD RDC, 25° C. and 60% relative humidity (6 Months)",[4],1
same,"XRPD RDC, 40° C. and 0% relative humidity (3 Months)",[4],1
same,"XRPD RDC, 40° C. and 75% relative humidity (3 Months)",[4],1
same,"XRPD RDC, INITIAL",[4],1
"CC(C(=O)O)c1cccc(Oc2ccccc2)c1 (stereo not shown) [Fenoprofen, fenoprofen]",RDC value,[5],0.125
same,Solubility,[1]; for its calcium salt,<<<<<<2500 μg/ml
"CC(=O)N1CCN(c2ccc(OC[C@H]3CO[C@](Cn4ccnc4)(c4ccc(Cl)cc4Cl)O3)cc2)CC1 (racemic) [KETOC, ketoconazole]",Solubility,[1],10 µg/mL
"CC(C)NCC(O)COc1cccc2ccccc12 (stereo not shown) [PROPFB, propranolol free base]",Solubility,[1],120 µg/mL
"CC(C(=O)O)c1cccc(C(=O)c2ccccc2)c1 (stereo not shown) [KETO, Ketoprofen]",% drug release at 15 minutes,[3],1.8%
same,% drug release at 30 minutes,[3],3.3%
same,% drug release at 120 minutes,[3],8.4%
"COCCOC(=O)C1=C(C)NC(C)=C(C(=O)OC(C)C)C1c1cccc([N+](=O)[O-])c1 (stereo not shown) [NIMO, nimodipine]",Solubility,[1],2299 µg/mL
"C[C@@H](C(=O)O)c1ccc(-c2ccccc2)c(F)c1 [FLURBI, flurbiprofen]",Solubility,[1],482 µg/mL
"CCC(C)n1ncn(-c2ccc(N3CCN(c4ccc(OCC5COC(Cn6cncn6)(c6ccc(Cl)cc6Cl)O5)cc4)CC3)cc2)c1=O (stereo not shown) [ITRA, Itraconazole]",solubility thermodynamic at 72 h,[2],5720 µg/mL
same,fold increase in drug solubility in the presence of AGF polymer,[2],16 fold
